Source: patent EP0300107A1, “Ester, thioester and amide derivatives of oxolinic acid, process for their synthesis and their therapeutical use” (VETOQUINOL S.A., priority 1987, dated 1989)
Where two headings read alike, the source gives them in different places.

Columns and labels:
[1] = Presence of the active principle in tissues after intramuscular injection in the rat; assay type: in vivo; conditions: i.m., 20 mg/kg en équivalent acide oxolinique
Experimental: d/ Détermination de la présence du principe actif dans les tissus après injection par voie intramusculaire chez le rat
Dose administrée : 20 mg/kg en équivalent acide oxolinique TABLEAU VI

[2] = Solubility in water and in usual solvents; conditions: qualitative statement
[3] = Plasma levels after intravenous injection in the dog; design: species or system chien; conditions: in vivo
Experimental: b/ Détermination des taux plasmatiques après injection intraveineuse chez le chien
Dose administrée : 15 mg/kg en équivalent acide oxolinique TABLEAU IV

[4] = Plasma levels after intramuscular injection in the dog; design: species or system chien; conditions: in vivo; for concentration at 0.5 h / concentration at 1 h / concentration at 2 h / concentration at 4 h / concentration at 6 h / concentration at 12 h / concentration at 24 h: dog, im
Experimental: a/ Détermination des taux plasmatiques après injection par voie intramusculaire chez le chien
Dose administrée : 15 mg/kg en équivalent acide oxolinique (Comparaison avec l'activité pharmacocinétique de l'acide oxolinique) TABLEAU III

[5] = Plasma levels after intramuscular injection in the rat; assay type: in vivo
Experimental: c/ Détermination des taux plasmatiques après injection par voie intramusculaire chez le rat
Dose administrée : 20 mg/kg en équivalent acide oxolinique TABLEAU V

[6] = Hydrolysis kinetics at room temperature; assay type: physicochemical
Description: Ainsi par exemple, l'étude cinétique à température ambiante de l'hydrolyse du composé JL 93V (stable en milieu faiblement acide et en milieu neutre) montre qu'il y a libération d'environ 50 % du principe actif (acide oxolinique) après 24 heures d'hydrolyse en milieu hydroxyde de sodium 0,001 M et coupure immédiate de la liaison ester en milieu hydroxyde de sodium 0,1 M. Cette liaison ester, tout comme d'ailleurs la liaison thioester ou amide, apparaît donc comme étant suffisamment labile par hydrolyse pour libérer le principe actif dans l'organisme.

[7] = Acute toxicity, lethal dose 50 in the mouse; conditions: in vivo, souris, read-out: DL 50 (the source's name)
Experimental: La toxicité des composés selon l'invention a également été étudiée par la mesure de la dose léthale 50 (DL 50) chez la souris et ils se sont révélés être satisfaisants sur ce plan. A titre d'exemple, on notera que pour le composé JL 93V, la DL 50 (souris; voie intraveineuse) est de 240 mg/kg et que la DL 50 (souris; voie orale) est de 1120 mg/kg.

With `CCn1cc(C(=O)O)c(=O)c2cc3c(cc21)OCO3` [Acide oxolinique, acide oxolinique, reference compound] the “Présence dans les tissus (foie, poumons, reins, muscles)” value (shortened to “Présence dans les tissus”) ([1]; 1 h) was “nulle”, the “Présence dans les tissus” value ([1]; 3 h) was “nulle” and the “Présence dans les tissus” value ([1]; 6 h) was “nulle”. The “Présence dans les tissus” value ([1]; 24 h) was “nulle”, the “solubilité dans l'eau ou les solvants organiques habituellement utilisés en galénique” value [2] was “relativement peu soluble” and the concentration at 0.5 h ([3]; chien, i.v., 15 mg/kg en équivalent acide oxolinique, 0,5 h, read-out: Taux plasmatiques) was 36800 ng/mL. The concentration at 1 h ([3]; chien, i.v., 15 mg/kg en équivalent acide oxolinique, 1 h, read-out: Taux plasmatiques) was 29800 ng/mL, the concentration at 2 h ([3]; chien, i.v., 15 mg/kg en équivalent acide oxolinique, 2 h, read-out: Taux plasmatiques) was 22300 ng/mL and the concentration at 6 h ([3]; chien, i.v., 15 mg/kg en équivalent acide oxolinique, 6 h, read-out: Taux plasmatiques) was 8890 ng/mL. For the same compound, the concentration at 8 h ([3]; chien, i.v., 15 mg/kg en équivalent acide oxolinique, 8 h, read-out: Taux plasmatiques) was 5650 ng/mL, the concentration at 10 h ([3]; chien, i.v., 15 mg/kg en équivalent acide oxolinique, 10 h, read-out: Taux plasmatiques) was 3590 ng/mL and the concentration at 24 h ([3]; chien, i.v., 15 mg/kg en équivalent acide oxolinique, 24 h, read-out: Taux plasmatiques) was 150 ng/mL. For the same compound, the concentration at 0.5 h ([4]; chien, i.m., 15 mg/kg en équivalent acide oxolinique, 0,5 h, read-out: Taux plasmatiques) was 6060 ng/mL, the concentration at 1 h ([4]; chien, i.m., 15 mg/kg en équivalent acide oxolinique, 1 h, read-out: Taux plasmatiques) was 6550 ng/mL and the concentration at 2 h ([4]; chien, i.m., 15 mg/kg en équivalent acide oxolinique, 2 h, read-out: Taux plasmatiques) was 5460 ng/mL. It also gave a concentration at 4 h ([4]; chien, i.m., 15 mg/kg en équivalent acide oxolinique, 4 h, read-out: Taux plasmatiques) of 3030 ng/mL, a concentration at 6 h ([4]; chien, i.m., 15 mg/kg en équivalent acide oxolinique, 6 h, read-out: Taux plasmatiques) of 2470 ng/mL and a concentration at 12 h ([4]; chien, i.m., 15 mg/kg en équivalent acide oxolinique, 12 h, read-out: Taux plasmatiques) of 1430 ng/mL. The concentration at 24 h ([4]; chien, i.m., 15 mg/kg en équivalent acide oxolinique, 24 h, read-out: Taux plasmatiques) was 980 ng/mL, the Taux plasmatiques ([5]; i.m., 20 mg/kg en équivalent acide oxolinique, 6 h) was “nul” and the Taux plasmatiques ([5]; i.m., 20 mg/kg en équivalent acide oxolinique, 24 h) was “nul”. For the same compound, the concentration at 1 h ([5]; in vivo, im, 20 mg/kg en équivalent acide oxolinique, 1 h, read-out: Taux plasmatiques) was 785 ng/mL and the concentration at 3 h ([5]; in vivo, im, 20 mg/kg en équivalent acide oxolinique, 3 h, read-out: Taux plasmatiques) was 225 ng/mL.

For `CCOCCOCCOC(=O)c1cn(CC)c2cc3c(cc2c1=O)OCO3` [JL 93V], the degraded at 24 h ([6]; 0.001 m naoh, room temperature, after 24 heures of hydrolysis in hydroxyde de sodium 0,001 M, read-out: libération du principe actif (acide oxolinique)) was about 50%, the stabilité ([6]; milieu faiblement acide and milieu neutre) was “stable” and the “coupure de la liaison ester” value ([6]; room temperature, hydroxyde de sodium 0,1 M) was “immédiate”. It also gave a concentration at 0.5 h ([3]; 15 mg/kg) of 33600 ng/mL, a concentration at 1 h ([3]; 15 mg/kg) of 30200 ng/mL and a concentration at 2 h ([3]; 15 mg/kg) of 23400 ng/mL. The concentration at 6 h ([3]; 15 mg/kg) was 10900 ng/mL, the concentration at 8 h ([3]; 15 mg/kg) was 8230 ng/mL and the concentration at 10 h ([3]; 15 mg/kg) was 6350 ng/mL. It also gave a concentration at 24 h ([3]; 15 mg/kg) of 1190 ng/mL, a concentration at 0.5 h ([4]; 15 mg/kg) of 7250 ng/mL and a concentration at 1 h ([4]; 15 mg/kg) of 16100 ng/mL. For the same compound, the concentration at 2 h ([4]; 15 mg/kg) was 15600 ng/mL, the concentration at 4 h ([4]; 15 mg/kg) was 10800 ng/mL and the concentration at 6 h ([4]; 15 mg/kg) was 6080 ng/mL. The concentration at 12 h ([4]; 15 mg/kg) was 2310 ng/mL, the concentration at 24 h ([4]; 15 mg/kg) was 450 ng/mL and the “aire sous la courbe (taux en fonction du temps)” value ([4]; 15 mg/kg) was “plus importante”. For the same compound, the Taux plasmatiques ([5]; in vivo, 20 mg/kg) was “nul”, the “aire sous la courbe” value ([5]; in vivo, 20 mg/kg) was “plus importante” and the concentration at 1 h ([5]; in vivo, im, 20 mg/kg) was 15700 ng/mL. The concentration at 3 h ([5]; in vivo, im, 20 mg/kg) was 8780 ng/mL, the concentration at 6 h ([5]; in vivo, im, 20 mg/kg) was 3420 ng/mL and the LD50 ([7]; iv, voie intraveineuse) was 240 mg/kg. The LD50 ([7]; po, voie orale) was 1120 mg/kg.
